In US12411143B2, “CD146 and uses thereof as a biomarker and as a therapeutic target in the diagnosis and treatment of fibrosis” (ASSISTANCE PUBLIQUE HÔPITAUX DE MARSEILLE, priority 2018, dated 2025):

Tests used:
ECFC [1] = assay: Soluble CD146 secretion in ECFC (ELISA); format: cell-based, human; conditions: for secretion of soluble CD146 in response to stimuli: 24 h, 20 ng/ml TNF, 20 ng/ml VEGF, 5 ng/ml TGFb, 50 ng/ml netrin, 50 ng/ml Wnt5a; for sCD146 secretion with proteinase inhibitors: IF 50 μM, TIMPs 1 μg/ml
Protocol: A: Secretion of soluble CD146 (CD146s) was determined in ECFC in response to 24 h of treatment with 20 ng/ml TNF, 20 ng/ml VEGF, 5 ng/ml TGFb, 50 ng/ml netrin, 50 ng/ml Wnt5a and 50 ng/ml Wnt3a.
B: The effect of the pan-inhibitor GM6001 was tested on CD146s secretion in ECFC cells by ELISA. Experiments were performed in control conditions and after treatment with 20 ng/ml TNF for 24 h. […] A dose-dependence of GM6001 effect was performed between 1 and 50 μM. Results are the mean values+/−SEM of 5 experiments.
C: The effect of furin convertase inhibitor (IF) was tested at 50 μMon CD146s secretion in control condition and after treatment with TNF 20 ng/ml for 24 h. Results are the mean values+/−SEM of 3 experiments.
D: Effect of TIMP-1, -2 and -3 (1 μg/ml) was tested on CD146s secretion in control condition and after treatment with 20 ng/ml TNF. Results are the mean values+/−SEM of 3 experiments. *: P<0.05, **: P<0.01, ***: P<0.001, experimental vs Control
A: ECFC were transfected with siRNA targeting the short (shCD146) or the long (IgCD146) isoforms of CD146 and with a control siRNA (C). Soluble CD146 (sCD146) secretion was determined. Results are the mean values+/−SEM of 4 different experiments.
B: ECFC were transfected with siRNA targeting MT1-MMP, MMP2, ADAM10 or Tace and with a control siRNA (C). Soluble CD146 (sCD146) secretion was determined. In one condition, cells were treated with GM6001 10 μM. Results are the mean values+/−SEM of 5 different experiments.
A: ECFC were transfected with siRNA targeting the short (shCD146) or the long (IgCD146) isoforms of CD146 and with a control siRNA (C) and soluble CD146 (sCD146) secretion was determined in basal condition and in cells treated for 24 h with TNF 20 ng/ml. Results are the mean values +/−SEM of 5 different experiments.
B: ECFC treated for 24 h with 20 ng/ml TNF were transfected with siRNA targeting Tace, ADAM10, MT1-MMP and with a control siRNA (C) and soluble CD146 (sCD146) secretion was determined. Results are the mean values +/−SEM of 3 different experiments.
Endothelial Colony Forming Cells (ECFC) were cultured in endothelial EGM-2 MV medium as previously described (Delorme B et al., 2005).
SiRNA designed to silence the different isoforms of sCD146 were generated. A control siRNA was also used in each experiment. siRNAs were introduced in endothelial cells using the Silence magmagnetofection kit as described by the manufacturer (OZ Biosciences).
Shed sCD146 was assayed using the commercial ELISA assay (CY-QUANT sCD146, Biocytex, Marseille). Plates were coated with specific mouse monoclonal anti-human CD146 F(ab′)2 fragments. 10 μL of sera was added to each well and incubated for 30 minutes at room temperature. After incubation, the plates were washed five times, followed by incubation with a specific HRP-coupled monoclonal antibody (7A4-HRP, 1 mg/ml, Biocytex, Marseille, France) at a 1:1 000 dilution in a specific diluent for 30 minutes at room temperature and then washed five times. 200 μL of tetramethylbenzidine (TMB) substrate was incubated for approximately 20 minutes at room temperature. The colorimetric reaction was then stopped by the addition of 100 μL of an acid solution. The intensity of the signal was directly related to the concentration of sCD146 initially contained in the sample. For detecting the two spliced isoforms of sCD146 (I5-13-sCD146 and I10-sCD146), the same immunoassay was used (Biocytex). The protocol was modified only for the second antibody (detection antibody) that was replaced by the anti-I5-13-sCD146 or anti-I10-sCD146 antibodies coupled to HRP.

ECFC [2] = assay: mRNA expression of sCD146 isoforms in ECFC (qPCR); format: cell-based, human; conditions: ECFC; 24 h treatment (WNT5a 15 min, WNT3a 1 h)
Protocol: C: The mRNA expression of I10-sCD146 and I5-13-sCD146 isoforms was analyzed by qPCR in ECFC after treatment of the cells for 24 h with the recombinant shed soluble CD146 50 ng/ml, VEGF 20 ng/ml, TNF 20 ng/ml, TGF beta 5 ng/ml, and netrin 50 ng/ml. Cells were also treated for 15 min with WNT5a 200 ng/ml and 1 h with WNT3a 50 ng/ml. Results are the mean values +/−SEM of 3 experiments. *: P<0.05, experimental vs Control.
Total cellular RNA was isolated from cells, reverse transcribed into cDNA and the resulting cDNA was subjected to qPCR.

[3] = control condition and TNF 20 ng/ml 24 h

TGFb: stimulus of endothelial cells, 5 ng/ml [reference compound]
secretion of soluble CD146 in response to stimuli (ECFC [1]): increased | I5-13-sCD146 mRNA level (ECFC [2]): not modified

CNC(=O)[C@H](Cc1c[nH]c2ccccc12)NC(=O)[C@@H](CC(=O)NO)CC(C)C [GM6001]
GM6001-dependent part of total sCD146 secretion (ECFC [1]; control condition and TNF 20 ng/ml 24 h, GM6001 1-50 μM): around 75%

shCD146 siRNA: siRNA targeting the short isoform of CD146; sens 5′CAGGAGAUGGAGAGAAAUACAUCGA (antisense UCGAUGUAUUUCUCUCCAUCUCCUG; chemistry not given here)
reduction of sCD146 secretion by siRNA (ECFC [1]; 24 h TNF 20 ng/ml): ~25% | effect of siRNA on sCD146 secretion (ECFC [1]; control condition): no effect

TIMP-1: TIMP used to inhibit sCD146 secretion
sCD146 secretion with proteinase inhibitors (ECFC [1]; [3]): able to reduce sCD146 secretion in both conditions

B1: Wnt3a: stimulus of endothelial cells (protein, UniProt P56704 19-352, looked up)
Protein Wnt-3a: SYPIWWSLAVGPQYSSLGSQPILCASIPGLVPKQLRFCRNYVEIMPSVAEGIKIGIQECQHQFRGRRWNCTTVHDSLAIFGPVLDKATRESAFVHAIASAGVAFAVTRSCAEGTAAICGCSSRHQGSPGKGWKWGGCSEDIEFGGMVSREFADARENRPDARSAMNRHNNEAGRQAIASHMHLKCKCHGLSGSCEVKTCWWSQPDFRAIGDFLKDKYDSASEMVVEKHRESRGWVETLRPRYTYFKVPTERDLVYYEASPNFCEPNPETGSFGTRDRTCNVSSHGIDGCDLLCCGRGHNARAERRREKCRCVFHWCCYVSCQECTRVYDVHTCK
I5-13-sCD146 mRNA level (ECFC [2]): not modified | I10-sCD146 mRNA level (ECFC [2]): down-regulated

B2: Wnt5a: stimulus of endothelial cells (protein, UniProt P41221 62-380, looked up)
Protein Wnt-5a: IIGAQPLCSQLAGLSQGQKKLCHLYQDHMQYIGEGAKTGIKECQYQFRHRRWNCSTVDNTSVFGRVMQIGSRETAFTYAVSAAGVVNAMSRACREGELSTCGCSRAARPKDLPRDWLWGGCGDNIDYGYRFAKEFVDARERERIHAKGSYESARILMNLHNNEAGRRTVYNLADVACKCHGVSGSCSLKTCWLQLADFRKVGDALKEKYDSAAAMRLNSRGKLVQVNSRFNSPTTQDLVYIDPSPDYCVRNESTGSLGTQGRLCNKTSEGMDGCELMCCGRGYDQFKTVQTERCHCKFHWCCYVKCKKCTEIVDQFVCK
secretion of soluble CD146 in response to stimuli (ECFC [1]): increased | I5-13-sCD146 mRNA level (ECFC [2]): up-regulated

B3: TIMP-3: TIMP used to inhibit sCD146 secretion (protein, UniProt P35625 24-211, looked up)
Metalloproteinase inhibitor 3: CTCSPSHPQDAFCNSDIVIRAKVVGKKLVKEGPFGTLVYTIKQMKMYRGFTKMPHVQYIHTEASESLCGLKLEVNKYQYLLTGRVYDGKMYTGLCNFVERWDQLTLSQRKGLNYRYHLGCNCKIKSCYYLPCFVTSKNECLWTDMLSNFGYPGYQSKHYACIRQKGGYCSWYRGWAPPDKSIINATDP
sCD146 secretion with proteinase inhibitors (ECFC [1]; [3]): able to reduce sCD146 secretion only when the cells were treated with TNF
